“Also recorded” adds a separate entry of the source. [pyrroloC] = pyrrolo-2'-deoxycytidine (fluorescent C analogue)
Experiments:
[1] = tested on: plasmid 600-nucleotide insert; assay: PCR assay: ability of pyrrolo-dC substituted T7 primers to amplify a plasmid insert; assay type: biochemical; details: primer dilution 4, 1.3, 0.4, 0.15 and 0.05 pmol, FIG. 4
Method: A series of tests were performed to test the ability of the T7 primers synthesized above to function in biological assays. In the first series of tests each of the T7 primers was evaluated in a PCR assay for their ability to amplify a plasmid insert. In the first experiment either the control or one of the experimental T7 forward primers, with one to four pyrrolo-dC substitutions, and an Sp6 reverse primer were tested for their ability to amplify a plasmid 600-nucleotide insert using supramaximal primer concentrations and the PCR products analyzed on an acrylamide gel. The sequences of the T7 forward primers are as follows: 5′-TAA TAC GAX TCA CTA TAG G-3′ (SEQ ID NO.: 6); 5′-TAA TAC GAX TXA CTA TAG G-3′ (SEQ ID NO.: 7); 5′-TAA TAX GAX TXA CTA TAG G-3′ (SEQ ID NO.: 8); 5′-TAA TAX GAX TXA XTA TAG G-3′ (SEQ ID NO.: 9); (control) 5′-TAA TAC GAC TCA CTA TAG G-3′ (SEQ ID NO.: 10), where X=pyrrolo-dC. Analysis of the stained gel was consistent with no differences in either the mobility or intensity of the stained bands corresponding to the 600-nucleotide PCR product generated by the control or experimental T7 primers.
The control and experimental T7 primers were next compared in another experiment using limiting concentrations of each of the T7 primers (1.3, 0.4, 0.15 and 0.05 pmole per reaction) and excess Sp6 primer. […]

[2] = tested on: polymerases Taq, Vent, Pfu; assay: PCR with different polymerases using T7 or T7-4 pyrrolo-dC primer; assay type: biochemical; details: biotinylated Sp6 reverse primer, ~500 nucleotide insert, Vent lower efficiency for both primers
Source text: The control and experimental T7 primers were next compared in another experiment using limiting concentrations of each of the T7 primers (1.3, 0.4, 0.15 and 0.05 pmole per reaction) and excess Sp6 primer. […] Finally the control and T7 primer containing four pyrrolo-dC substitutions were compared in their ability to be recognized by a variety of polymerases, Taq from ABI, Vent from New England Biolabs and Pfu from Stratagene. In this case a biotinylated Sp6 primer was used as the reverse primer in the amplification reaction of a plasmid containing an approximately 500 nucleotide insert.
Experiments were carried out to examine the effect of substituted pyrrolo-dC primers on the activity of several polymerases. Three experiments were carried out to examine the ability of different polymerases (Taq, Vent, Pfu) to use the T7 or T7-4 pyrrolo-dC primer in PCR; the other primer in the pair was biotinylated Sp6. […] In FIG. 6, lane 1 is standards, lane 2 is T7-4 pyrrolo-dC primer with Taq (ABI), lane 3 is T7-4 pyrrolo-dC primer with Vent (NEB), lane 4 is T7-4 pyrrolo-dC primer with Pfu (Stratagene), lane 5 is T7 primer with Taq (ABI), lane 6 is T7 primer with Vent (NEB), lane 7 is T7 primer with Pfu (Stratagene), and lane 8 is standards.

[3] = tested on: complementary strands containing each of the four natural deoxyribonucleotide bases opposite pyrrolo-dC; assay: Hybridization specificity: melting temperature (Tm) of 19mer oligonucleotide containing a single pyrrolo-dC; assay type: binding
Method: The hybridization specificity of pyrrolo-dC was evaluated by determining the melting temperature (Tm) of a 19mer oligonucleotide with the sequence 5′-GCC TAA CTT CXG GAG ATG T-3′ (SEQ ID NO.: 1), where X is Pyrrolo-dC which contains a single pyrrolo-dC. This oligonucleotide was annealed to complementary strands containing each of the four natural deoxyribonucleotide bases opposite it. Hybridization was best with a strand containing dG opposite pyrrolo-dC and decreased in the order dG>dT>dA>dC (melting temperature Tm=65, 56, 55 and 52° C. respectively). The effect of multiple incorporations was next evaluated by synthesizing a T7 universal primer where dC was replaced with zero to four pyrrolo-dC residues. All five oligonucleotides had the same Tm as that of the control (57° C.) when hybridized with an oligonucleotide complementary to the T7 primer regardless of the number of pyrrolo-dC/dC substitutions.

[4] = Spectral properties of pyrrolo-dC (extinction coefficients, fluorescence quantum yield); assay type: physicochemical; details: for QY (quantum yield): relative to quinine sulfate in O.5 M H2SO4
Source text: The spectral properties of pyrrolo-dC, coupled with its unique base-pairing ability, make this fluorescent analog extremely valuable in probing DNA structure. When the pyrrolo-dC is base-paired, its fluorescence can be reduced or quenched through what is most likely base stacking interactions (see Table I).

polymerases = assay: Cycle sequencing of PCR fragments made with pyrrolo-dC substituted primer; assay type: biochemical; details: C in sense strand product, G in antisense strand product
Source text: A series of tests was designed to determine if a pyrrolo-dC residue coded as dC for a dG. In this experiment a 100× diluted aliquot of the ˜500 nucleotide insert generated by the control T7 and Sp6 primers was further amplified using a biotinylated Sp6 primer and either a control 42 base M13-T7 primer or one with four pyrrolo-dC substitutions in the T7 sequence. The PCR product was captured on streptavidin beads, excess primers were removed by washing, and the suspension was divided into two portions. One reaction (the antisense strand) was sequenced using an M13 forward primer (using ABI dRhodamine chemistry); the other was sequenced (carried out using Beckman dye terminator chemistry) by using Sp6, after releasing the sense strand by heat denaturation of the immobilized PCR fragment.
Sequencing reactions (in duplicate) were carried out with PCR fragments to determine if pyrrolo-dC substitutes for dC. PCR fragments were generated by using, as template, a 100-fold dilution of the product of T7/bio-Sp6 reaction (similar to lane 5 above) and a primer pair of biotinylated Sp6 and the M13F-T7 (or its pyrrolo-dC-substituted homolog). The PCR fragment from this amplification was purified by streptavidin beads to remove excess primers and the suspension divided into two portions. […] Thus, under cycle sequencing conditions, the pyrrolo-dC residue is read as a dC.

AmpiTaq DNA polymerase = biological target: T1, AmpiTaq DNA polymerase (Thermus aquaticus, UniProt P19821); assay: PCR and sequencing with pyrrolo-dCTP replacing dCTP; assay type: biochemical; details: dye-terminator cycle sequencing of PCR product
T1 construct: purchased Applied Biosystems
Source text: The triphosphate of pyrrolo-dC (pyrrolo-dCTP) was synthesized and compared with dCTP for its ability to be recognized by polymerases and be incorporated as a dC into polymerase generated products. Nucleotide-triphosphate mixes containing either dCTP or pyrrolo-dCTP were used in amplification reactions similar to the ones above and the product analyzed by acrylamide gel.
The PCR and sequencing experiments in Example 15 were repeated to determine if polymerases incorporated pyrrolo-dCTP as efficiently as dCTP (FIGS. 7 & 8). Purified plasmid DNA with 500-600 bp inserts were amplified in a standard 25 μl PCR reaction. One of the primers was biotinylated to facilitate the post-reaction cleanup of the PCR product. AmpiTaq DNA polymerase (1.25 Units, Applied Biosystems) was used as enzyme with 200 μM final concentration of each dNTP. In the pyrrolo-dCTP samples the dCTP was replaced with 200 μM pyrrolo-dCTP. Following the PCR reaction (55° C. annealing for 20 sec, 72° C. extension for 45 sec, 30 cycles) an aliquot of the reaction was subjected to agarose gel electrophoresis to verify the size and quality of the product. […] An aliquot of the purified product, still attached to the magnetic beads, was sequenced in a standard fluorescent dye-terminator cycle sequencing reaction and analyzed on a Beckman CEQ2000XL DNA sequencer.

[5] = tested on: otherwise duplex hybrid, mismatched base adenosine; details: mismatched base is adenosine; cited from earlier work
T7 RNA Polymerase = T7 RNA Polymerase (Escherichia phage T7, UniProt P00573); details: transcription bubble in elongation complexes; cited from earlier work
T7 RNA Polymerase, sequence (P00573 whole entry): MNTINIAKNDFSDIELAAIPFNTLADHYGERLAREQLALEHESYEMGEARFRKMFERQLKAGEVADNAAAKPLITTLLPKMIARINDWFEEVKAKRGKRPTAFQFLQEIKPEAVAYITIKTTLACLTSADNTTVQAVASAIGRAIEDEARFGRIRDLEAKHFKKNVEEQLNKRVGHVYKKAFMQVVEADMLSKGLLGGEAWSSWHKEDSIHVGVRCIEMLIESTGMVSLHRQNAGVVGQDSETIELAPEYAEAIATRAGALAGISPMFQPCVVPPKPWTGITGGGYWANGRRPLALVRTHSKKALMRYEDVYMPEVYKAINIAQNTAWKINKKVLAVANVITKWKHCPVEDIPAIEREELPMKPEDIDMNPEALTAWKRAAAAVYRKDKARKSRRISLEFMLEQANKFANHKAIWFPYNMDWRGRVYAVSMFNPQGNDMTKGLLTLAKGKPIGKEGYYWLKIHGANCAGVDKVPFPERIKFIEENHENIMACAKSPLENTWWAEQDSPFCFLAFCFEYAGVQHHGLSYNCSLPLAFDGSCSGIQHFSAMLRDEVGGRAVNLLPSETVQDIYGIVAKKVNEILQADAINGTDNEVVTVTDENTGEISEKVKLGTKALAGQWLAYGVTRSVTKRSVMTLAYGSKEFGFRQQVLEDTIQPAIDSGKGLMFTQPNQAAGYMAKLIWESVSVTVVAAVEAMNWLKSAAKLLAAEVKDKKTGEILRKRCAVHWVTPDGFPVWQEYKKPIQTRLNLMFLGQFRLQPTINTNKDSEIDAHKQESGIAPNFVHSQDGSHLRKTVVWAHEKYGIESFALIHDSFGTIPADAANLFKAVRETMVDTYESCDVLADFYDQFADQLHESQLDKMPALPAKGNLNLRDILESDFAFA

T1 sequence (P19821 whole entry): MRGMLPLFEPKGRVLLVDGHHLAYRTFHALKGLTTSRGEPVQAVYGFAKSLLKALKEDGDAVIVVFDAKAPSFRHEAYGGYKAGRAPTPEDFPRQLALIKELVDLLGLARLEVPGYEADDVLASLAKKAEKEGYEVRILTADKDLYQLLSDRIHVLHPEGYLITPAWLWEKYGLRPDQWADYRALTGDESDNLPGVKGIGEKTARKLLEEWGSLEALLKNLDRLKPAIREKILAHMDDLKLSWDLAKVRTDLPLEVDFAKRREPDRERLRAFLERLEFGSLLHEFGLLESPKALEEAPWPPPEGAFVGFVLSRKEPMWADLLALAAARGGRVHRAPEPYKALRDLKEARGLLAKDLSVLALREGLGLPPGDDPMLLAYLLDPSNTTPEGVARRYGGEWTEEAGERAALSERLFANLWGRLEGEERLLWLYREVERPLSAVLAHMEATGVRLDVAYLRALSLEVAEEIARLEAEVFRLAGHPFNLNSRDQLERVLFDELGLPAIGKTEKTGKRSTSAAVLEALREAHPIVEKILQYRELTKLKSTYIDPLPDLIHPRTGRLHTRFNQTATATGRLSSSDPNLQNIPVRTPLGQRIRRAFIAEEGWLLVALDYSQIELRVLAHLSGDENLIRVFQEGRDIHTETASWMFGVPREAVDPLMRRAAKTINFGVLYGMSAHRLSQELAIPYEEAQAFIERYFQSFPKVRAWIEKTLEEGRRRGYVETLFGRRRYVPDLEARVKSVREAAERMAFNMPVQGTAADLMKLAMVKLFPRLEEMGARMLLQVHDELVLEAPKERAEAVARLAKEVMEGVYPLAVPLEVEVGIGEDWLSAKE

Q: What does the source list for “SEQ ID NO.:9: T7 forward primer 5′-TAA TAX GAX TXA XTA TAG G-3′, X=pyrrolo-dC; four substitutions (TAATACGACTCACTATAGG; DNA, [pyrroloC] at 6, 9, 11, 13, backbone not given here)”?
A: primer amount at which product formation sharply decreases [1]: around 0.15 pmol; ability to be used by polymerases in PCR versus unsubstituted T7 primer [2]: equivalence

Q: With “SEQ ID NO.: 1: 19mer oligonucleotide 5′-GCC TAA CTT CXG GAG ATG T-3′, where X is Pyrrolo-dC” as the compound, how does the “melting temperature Tm” value ([3]; dA opposite pyrrolo-dC) read?
A: 55 °C

Q: And the “melting temperature Tm” value ([3]; dC opposite pyrrolo-dC)?
A: 52 °C

Q: What about the “melting temperature Tm” value ([3]; dG opposite pyrrolo-dC) of the same compound?
A: 65 °C

Q: What about the “melting temperature Tm” value ([3]; dT opposite pyrrolo-dC) of the same compound?
A: 56 °C

Q: With `Cc1cc2cn([C@H]3C[C@H](O)[C@@H](CO)O3)c(=O)nc2[nH]1` [Pyrrolo-dC, 6-Methyl-3-(β-D-2-deoxyribofuranosyl)pyrrolo[2,3-d]pyrimidin-2-one] as the compound, how does the E260 [4] read?
A: 4,000 LImol cm

Q: What about the E345 [4] of the same compound?
A: 3,700 L/mol cm

Q: What about the “QY (quantum yield)” value ([4]; double-stranded) of the same compound?
A: 0.02

Q: What about the “QY (quantum yield)” value ([4]; single-stranded) of the same compound?
A: 0.07

Q: What about the “how the residue is read under cycle sequencing conditions” value (polymerases) of the same compound?
A: “read” as a dC; also recorded: read as a dC

Q: What about the “sequence of PCR product generated with the triphosphate” value (AmpiTaq DNA polymerase) of the same compound?
A: specifically incorporated as a “dC” opposite a dG residue

Q: What about the “fluorescence when mismatched in an otherwise duplex hybrid” value [5] of the same compound?
A: higher than the single-stranded species

Q: What about the “increase in fluorescence as the polymerase induces melting” value (T7 RNA Polymerase) of the same compound?
A: two-fold

Reference: patent publication US20040009933A1, “Fluorescent nitrogenous base and nucleosides incorporating same” (Glen Research Corporation, priority 2002, published 2004)
